Here are results for nine molecules from ChEMBL document CHEMBL1127015, “Centrally acting serotonergic and dopaminergic agents. 1. Synthesis and structure-activity relationships of 2,3,3a,4,5,9b-hexahydro-1H-benz[e]indole derivatives” (J Med Chem, 1993).

The structures appear in SMILES notation.

Test [1] relates to Rattus norvegicus. The experiment in a line: Inhibition of firing rates of serotonergic neurons in the dorsal raphe nucleus by intravenous injection in rats. In kind it is functional.
Test [2] deals with T1, D(2) dopamine receptor (Rattus norvegicus, UniProt P61169). The experiment in a line: Binding affinity against [3H]raclopride-labeled dopamine receptor D2 in rat striatum. It is filed as tissue-based.
Test [3] concerns Rattus norvegicus. The experiment in a line: Inhibition of firing rates of dopaminergic neurons in the substantia nigra pars compacta by intravenous injection in rats. It is filed as functional.
The test system of test [4] is Felis catus. The experiment in a line: Maximum decrease of arterial blood pressure at sympathetic nerve activity (SND) in anesthetized cat has been observed following 1 mg/kg dose. In kind it is functional. Also on record: scale not given: the % may be the effect or the level left.
Test [5] deals with Mus musculus. The experiment in a line: Effective dose on hypothermia in mouse when administered subcutaneously. It is filed as functional. Conditions: sc.
Test [6] deals with Felis catus. The experiment in a line: Effective dose at which the sympathetic nerve activity (SND) has been reduced to 50% of the pretreatment value in anesthetized cat. It is filed as functional.
In test [7] the target is T1, D(2) dopamine receptor. The experiment in a line: Inhibitory concentration against [3H]raclopride-labeled dopamine receptor D2 in rat striatum. In kind it is tissue-based.
Test [8] has as its system Felis catus. The experiment in a line: Maximum decrease of sympathetic nerve activity (SND) in anesthetized cat. Also on record: scale not given: the % may be the effect or the level left. It is filed as functional.
The test system of test [9] is Mus musculus. The experiment in a line: Maximum decrease in temperature when compound is administered through peroral route. It is filed as functional.
Test [10] deals with Mus musculus. The experiment in a line: Effective dose on hypothermia in mouse when administered through peroral route. It is filed as functional. Conditions: po.
The test system of test [11] is Mus musculus. The experiment in a line: Maximum decrease in temperature when compound is administered subcutaneously. In kind it is functional.
Test [12] is filed under the species Felis catus. The experiment in a line: Percent of arterial blood pressure at sympathetic nerve activity (SND) dose value was determined. In kind it is functional.
Test [13] concerns Mus musculus. The experiment in a line: Antagonism of apomorphine effects for 10-20 minutes in reserpinized mice following 0.4 umol/kg i.p. It is filed as functional.
Test [14] relates to Mus musculus. The experiment in a line: Antagonism of apomorphine in reserpinized mice when a dose of 3.5 micro mol/kg is administered intraperitoneally. In kind it is functional.
The subject of test [15] is Mus musculus. The experiment in a line: Ability to stimulate dopaminergic systems by effect on locomotor activity in reserpinized mice when a dose of 3.5 micro mol/kg is administered intraperitoneally. In kind it is functional.
Test [16] concerns Mus musculus. The experiment in a line: Antagonism of apomorphine for 10-20 minutes in reserpinized mice when a dose of 35 micro mol/kg is administered intraperitoneally. It is filed as functional.
For test [17], the target named is T2, D(2) dopamine receptor (Homo sapiens, UniProt P14416). The experiment in a line: Intrinsic activity from GTP shift using membranes from CHO cells transfected with mammalian dopamine receptor D2. In kind it is cell membranes.
In test [18] the test system is Mus musculus. The experiment in a line: Increase in locomotor activity in reserpinized mice following 0.4 umol/kg i.p. It is filed as functional.
For test [19], the system named is Mus musculus. The experiment in a line: Antagonism of apomorphine for 10-20 minutes in reserpinized mice when a dose of 3.5 micro mol/kg is administered intraperitoneally. In kind it is functional.
For test [20], the system named is Mus musculus. The experiment in a line: Antagonism of apomorphine effects for 0-10 minutes in reserpinized mice following 0.4 umol/kg i.p. It is filed as functional. Also on record: unit not given beside the values.
Test [21] deals with Mus musculus. The experiment in a line: Antagonism of apomorphine for 0-10 minutes in reserpinized mice when a dose of 35 micro mol/kg is administered intraperitoneally. In kind it is functional.
Test [22] deals with Mus musculus. The experiment in a line: Antagonism of apomorphine effects in reserpinized mice following 0.4 umol/kg i.p. In kind it is functional.
In test [23] the test system is Mus musculus. The experiment in a line: Antagonism of apomorphine in reserpinized mice when a dose of 35 micro mol/kg is administered intraperitoneally. In kind it is functional.
Test [24] concerns Mus musculus. The experiment in a line: Antagonism of apomorphine for 0-10 minutes in reserpinized mice when a dose of 3.5 micro mol/kg is administered intraperitoneally. It is filed as functional.
The test system of test [25] is Mus musculus. The experiment in a line: Ability to stimulate dopaminergic systems by effect on locomotor activity in reserpinized mice when a dose of 35 micro mol/kg is administered intraperitoneally. It is filed as functional.
The test system of test [26] is Rattus norvegicus. The experiment in a line: Inhibition of firing rates of dopaminergic neurons in the substantia nigra pars compacta by intravenous injection in rats. It is filed as functional. Conditions: Rattus norvegicus, Substantia nigra pars compacta, iv; read-out: ED50.
Test [27] concerns Mus musculus. The experiment in a line: Antagonism of apomorphine for 0-10 minutes in reserpinized mice when a dose of 3.6 micro mol/kg is administered intraperitoneally. It is filed as functional.
The species entered for test [28] is Rattus norvegicus. The experiment in a line: Effect on the synthesis rates of serotonin (5-HTP accumulation) in the rat ventral limbic brain region at 10.7uMkg. In kind it is functional, Limbic system.
The species entered for test [29] is Rattus norvegicus. The experiment in a line: Effect on the synthesis rates of serotonin (5-HTP accumulation) in the rat ventral limbic brain region at 10.7uMkg. value as percent change from the control. In kind it is functional, Limbic system.
Test [30] relates to Mus musculus. The experiment in a line: Antagonism of apomorphine in reserpinized mice when a dose of 36 micro mol/kg is administered intraperitoneally. It is filed as functional.
For test [31], the system named is Felis catus. The experiment in a line: Maximum decrease of sympathetic nerve activity (SND) in anesthetized cat has been expressed as percent control. Also noted: scale not given: the % may be the effect or the level left. It is filed as functional.
In test [32] the test system is Mus musculus. The experiment in a line: Antagonism of apomorphine for 10-20 minutes in reserpinized mice when a dose of 36 micro mol/kg is administered intraperitoneally. In kind it is functional.
The subject of test [33] is Mus musculus. The experiment in a line: Antagonism of apomorphine for 10-20 minutes in reserpinized mice when a dose of 3.6 micro mol/kg is administered intraperitoneally. In kind it is functional.
Test [34] deals with Mus musculus. The experiment in a line: Antagonism of apomorphine in reserpinized mice when a dose of 3.6 micro mol/kg is administered intraperitoneally. In kind it is functional.
Test [35] has as its system Mus musculus. The experiment in a line: Ability to stimulate dopaminergic systems by effect on locomotor activity in reserpinized mice when a dose of 36 micro mol/kg is administered intraperitoneally. It is filed as functional.
The subject of test [36] is Mus musculus. The experiment in a line: Ability to stimulate dopaminergic systems by effect on locomotor activity in reserpinized mice when a dose of 3.6 micro mol/kg is administered intraperitoneally. It is filed as functional.
Test [37] deals with Mus musculus. The experiment in a line: Antagonism of apomorphine for 0-10 minutes in reserpinized mice when a dose of 36 micro mol/kg is administered intraperitoneally. In kind it is functional.
Test [38] deals with T2, D(2) dopamine receptor. The experiment in a line: Binding affinity against [3H]U-86,170-labeled dopamine receptor D2 in cloned CHO cells. It is filed as cell-based.

T1 sequence (P61169 whole entry): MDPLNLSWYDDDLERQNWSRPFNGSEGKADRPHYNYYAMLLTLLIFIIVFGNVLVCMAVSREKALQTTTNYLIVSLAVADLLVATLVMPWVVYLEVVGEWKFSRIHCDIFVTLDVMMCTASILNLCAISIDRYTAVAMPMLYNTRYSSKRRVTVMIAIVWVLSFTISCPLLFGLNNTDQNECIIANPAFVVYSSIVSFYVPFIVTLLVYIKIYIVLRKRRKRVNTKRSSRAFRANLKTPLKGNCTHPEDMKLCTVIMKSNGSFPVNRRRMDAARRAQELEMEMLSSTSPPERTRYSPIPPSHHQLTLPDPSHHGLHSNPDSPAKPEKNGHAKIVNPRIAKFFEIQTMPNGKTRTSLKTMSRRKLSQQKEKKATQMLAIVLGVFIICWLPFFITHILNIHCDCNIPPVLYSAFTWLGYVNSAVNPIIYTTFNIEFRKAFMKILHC
T2 sequence (P14416 whole entry): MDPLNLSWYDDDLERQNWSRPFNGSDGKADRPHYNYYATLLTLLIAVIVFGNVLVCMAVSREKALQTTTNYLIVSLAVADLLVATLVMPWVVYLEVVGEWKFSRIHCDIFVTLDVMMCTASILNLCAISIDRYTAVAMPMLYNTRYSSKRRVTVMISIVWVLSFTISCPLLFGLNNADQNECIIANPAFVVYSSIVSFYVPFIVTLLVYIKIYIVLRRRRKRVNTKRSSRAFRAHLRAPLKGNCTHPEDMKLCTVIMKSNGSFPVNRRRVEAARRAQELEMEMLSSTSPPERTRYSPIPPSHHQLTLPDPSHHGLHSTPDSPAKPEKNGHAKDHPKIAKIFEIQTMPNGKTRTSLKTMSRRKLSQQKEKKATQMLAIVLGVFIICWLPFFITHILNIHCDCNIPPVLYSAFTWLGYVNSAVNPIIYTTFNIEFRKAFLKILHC

For the molecule `CCCN(CCC)C1CCc2cccc(O)c2C1` (configuration not stated) [8-OH-DPAT], the ED50 came out at 0.005 µmol/kg in the test on Rattus norvegicus [1] and 2.25 µmol/kg with Rattus norvegicus [3]. Moreover, the Ki on D(2) dopamine receptor [2] is > 1000 nM.
In the case of `CCCN1[C@@H]2CCc3cccc(OC)c3C2C[C@@H]1C` (mixture of isomers), the Control was 73% in the test on Felis catus [4] and 82% in the test with Felis catus [8]. The ED50 is 14 µmol/kg with Mus musculus [5], 0.17 µmol/kg in the test with Felis catus [6] and 338 µmol/kg in the test with Mus musculus [10]. Also, the IC50 against D(2) dopamine receptor [7] was > 1000 nM. The figures for the Max temperature decrease with Mus musculus [9] and in the test on Mus musculus [11] were 3 and 6.8, respectively. The molecule further returned a BP in the test listed under Felis catus [12] of 42%.
For `CCCN1CC[C@@H]2c3cccc(OC)c3CC[C@H]21` (racemic), the Locomotor activity was determined as 123 in the test with Mus musculus [13]; 122 in the test on Mus musculus [14]; 6 in the test on Mus musculus [15]; 34 in the test with Mus musculus [16]; 1 in the test with Mus musculus [18]; 98 in the test on Mus musculus [19]. Further, the Locomotor activity is recorded as 87 in the test with Mus musculus [20]; 10 in the test with Mus musculus [21]; 188 in the test on Mus musculus [22]; 53 in the test on Mus musculus [23]; 64 in the test on Mus musculus [24]; 27 in the test with Mus musculus [25]. Also, the Intrinsic activity on D(2) dopamine receptor [17] is 0%. Besides, in the test on Mus musculus [5], the ED50 amounted to 34 µmol/kg. In addition, the Max temperature decrease with Mus musculus [11] was 3.9.
On to `CN1CCc2cccc3c2[C@H]1Cc1ccc(O)c(O)c1-3` [APOMORPHINE], for which the ED50 in the test with Rattus norvegicus [26] was 0.03 µmol/kg.
As for `CCCN1CCC2c3c(O)cccc3CCC21` (racemic), the values for the ED50 with Mus musculus [5] and with Mus musculus [10] were 2.1 µmol/kg and 154 µmol/kg, respectively. Besides, the IC50 against D(2) dopamine receptor [7] is > 1000 nM. Further, the Max temperature decrease is recorded as 2.6 in the test on Mus musculus [9] and 8.8 with Mus musculus [11].
In the case of `C=CCN1CC[C@@H]2c3cccc(OC)c3CC[C@H]21` (racemic), the Locomotor activity is on record as 106 with Mus musculus [13]; 76 in the test with Mus musculus [27]; 4 with Mus musculus [18]; 78 in the test on Mus musculus [20]; 156 in the test on Mus musculus [22]; 13 in the test on Mus musculus [30]. The Locomotor activity in the test on Mus musculus [32] worked out at 54; in the test on Mus musculus [33] it was 116; in the test on Mus musculus [34] it was 142; with Mus musculus [35], 49; with Mus musculus [36] it was 81; with Mus musculus [37] it was 42. Moreover, the Control in the test on Felis catus [4] is reported as 61%; in the test listed under Rattus norvegicus [28] it was -51%; in the test filed under Rattus norvegicus [29], 95%; in the test with Felis catus [31], 105%. Also, at D(2) dopamine receptor [17], the Intrinsic activity was determined as 0%. In addition, the ED50 in the test on Mus musculus [5] is > 107 µmol/kg. Further, the affinity at D(2) dopamine receptor [2], expressed as Ki, was 99 nM. The molecule also showed a Max temperature decrease with Mus musculus [11] of 3.4.
Consider `COc1cccc2c1CC[C@@H]1[C@@H]2CCN1CC1CC1` (racemic), for which the Ki at D(2) dopamine receptor [2] is > 10000 nM.
In the case of `CCCN1CCC2c3c(cccc3OC)CCC21` (racemic), the results for the ED50 in the test on Mus musculus [5] and with Mus musculus [10] were 20 µmol/kg and 109 µmol/kg, respectively. For the same molecule, at D(2) dopamine receptor [2], the Ki is > 1000 nM. Also, the results for the Max temperature decrease in the test on Mus musculus [9] and in the test with Mus musculus [11] were 6 and 1.5, respectively.
On to `CCCN1CC[C@H]2c3cccc(O)c3CC[C@H]21` (racemic), for which the Ki was 218 nM at D(2) dopamine receptor [38] and > 1000 nM at D(2) dopamine receptor [2]. Also, the Intrinsic activity on D(2) dopamine receptor [17] came to 1%.

The term ED50 denotes the dose at which the effect has come halfway, by size or by number of responders. The term Ki denotes a dissociation constant, usually derived from enzyme kinetics or from competition with a known ligand. One may read the IC50 as the concentration at which inhibition is half-maximal.
